Measurements reported in PubChem BioAssay AID1963868 (Molecular Pharmacology Branch, DTP, NCI, 2024).

Tested on: KRAS PDC tumor spheroids (HUVEC+MSC), viability
Test: Anticancer human tumor 254851-301-R-J1-PDC patient-derived colon carcinoma cell line growth inhibition [KRAS2]
Conditions: for IC50: curve of first compound; for viability, T/C: stronger effect = lower value
In short: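 Combination screen of spheroid viability in tumor-cell co-cultures with endothelial (HUVEC) and mesenchymal stem cell stroma. Each agent was tested in half-log dilutions, topping at clinical Cmax or at 10 microM without a known Cmax.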

[1] = second compound 0.1 µM, first compound 0.0316 µM
[2] = second compound 0.1 µM, first compound 0.1 µM
[3] = second compound 0.1 µM, first compound 0.316 µM
[4] = second compound 0.1 µM, first compound 1 µM
[5] = second compound 0.1 µM, first compound 3.16 µM
[6] = second compound 0.316 µM, first compound 0.0316 µM
[7] = second compound 0.316 µM, first compound 0.1 µM
[8] = second compound 0.316 µM, first compound 0.316 µM
[9] = second compound 0.316 µM, first compound 1 µM
[10] = second compound 0.316 µM, first compound 3.16 µM
[11] = second compound 1 µM, first compound 0.0316 µM
[12] = second compound 1 µM, first compound 0.1 µM
[13] = second compound 1 µM, first compound 0.316 µM
[14] = second compound 1 µM, first compound 1 µM
[15] = second compound 1 µM, first compound 3.16 µM
[16] = second compound 3.16 µM, first compound 0.0316 µM
[17] = second compound 3.16 µM, first compound 0.1 µM
[18] = second compound 3.16 µM, first compound 0.316 µM
[19] = second compound 3.16 µM, first compound 1 µM
[20] = second compound 3.16 µM, first compound 3.16 µM
[21] = second compound 10 µM, first compound 0.0316 µM
[22] = second compound 10 µM, first compound 0.1 µM
[23] = second compound 10 µM, first compound 0.316 µM
[24] = second compound 10 µM, first compound 1 µM
[25] = second compound 10 µM, first compound 3.16 µM
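Note: spheroids exposed to compounds for seven days before readout.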
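Throughout, for viability, T/C: 100% = DMSO vehicle control luminescence of the spheroids.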

| SMILES | IC50 (second compound 0.1 µM) [nM] | IC50 (second compound 0.316 µM) [nM] | IC50 (second compound 1 µM) [nM] | IC50 (second compound 3.16 µM) [nM] | IC50 (second compound 10 µM) [nM] | viability, T/C [1] [%] | viability, T/C [2] [%] | viability, T/C [3] [%] | viability, T/C [4] [%] | viability, T/C [5] [%] | viability, T/C [6] [%] | viability, T/C [7] [%] | viability, T/C [8] [%] | viability, T/C [9] [%] | viability, T/C [10] [%] | viability, T/C [11] [%] | viability, T/C [12] [%] | viability, T/C [13] [%] | viability, T/C [14] [%] | viability, T/C [15] [%] | also measured |
| --- | --- | --- | --- | --- | --- | --- | --- | --- | --- | --- | --- | --- | --- | --- | --- | --- | --- | --- | --- | --- | --- |
| O=C(c1cc(Cc2n[nH]c(=O)c3ccccc23)ccc1F)N1CCN(C(=O)C2CC2)CC1 + CC1OCC2(CCN(c3cnc(Sc4ccnc(N)c4Cl)c(N)n3)CC2)C1N | > 10000 | > 10000 | > 10000 | > 10000 | > 10000 | 104 | 107 | 93.8 | 88 | 102 | 92.8 | 95 | 90.6 | 93.7 | 94.7 | 93.6 | 87.1 | 80.6 | 83.7 | 87.6 | viability, T/C (second compound 0.1 µM, first compound 10 µM): 91.3%; viability, T/C (second compound 0.316 µM, first compound 10 µM): 92.4%; viability, T/C (second compound 1 µM, first compound 10 µM): 84%; viability, T/C [16]: 79.4%; viability, T/C [17]: 73.1%; viability, T/C [18]: 73.2%; viability, T/C [19]: 71.2%; viability, T/C [20]: 79.3%; viability, T/C (second compound 3.16 µM, first compound 10 µM): 65.5%; viability, T/C [21]: 68.9%; viability, T/C [22]: 75.4%; viability, T/C [23]: 66.1%; viability, T/C [24]: 59.9%; viability, T/C [25]: 58.1%; viability, T/C (second compound 10 µM, first compound 10 µM): 60.7% |
| CC1COCCN1c1cc(-c2ccnn2C)c2ccnc(-c3ccn[nH]3)c2n1 (stereo not given) + CNCc1ccccc1-c1csc(C(C)Nc2nc(C)nc3cc(OC)c(OC)cc23)c1 | 278 | 217 | 252 | < 10 | < 10 | 103 | 60.1 | 50.7 | 36 | 20.1 | 93.9 | 64.4 | 42.9 | 34.3 | 25.9 | 93.4 | 70.4 | 44.9 | 31 | 24.1 | viability, T/C (second compound 0.1 µM, first compound 0.01 µM): 107%; viability, T/C (second compound 0.316 µM, first compound 0.01 µM): 91.9%; viability, T/C (second compound 1 µM, first compound 0.01 µM): 95.5%; viability, T/C (second compound 3.16 µM, first compound 0.01 µM): 44.1%; viability, T/C [16]: 35.2%; viability, T/C [17]: 31.2%; viability, T/C [18]: 14.6%; viability, T/C [19]: 26.8%; viability, T/C [20]: 17%; viability, T/C (second compound 10 µM, first compound 0.01 µM): 0.08%; viability, T/C [21]: 0.08%; viability, T/C [22]: 0.07%; viability, T/C [23]: 0.99%; viability, T/C [24]: 0.07%; viability, T/C [25]: 0.12% |
